PubChem BioAssay (NCI)
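Values below derive from 48-hour exposures of cells grown in 96-well plates, with endpoints linearly interpolated between the two concentrations bracketing the appropriate inhibition level. The concentration for full growth arrest is given as TGI.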

Assays:
Assay in all cases: NCI tumour cell line growth inhibition, 48 h
[1] = test system: TK-10 renal
[2] = test system: HL-60(TB) leukemia
[3] = test system: MCF7 breast
[4] = test system: A498 renal
[5] = test system: NCI/ADR-RES ovarian
[6] = test system: A549 NSCLC
[7] = test system: U251 CNS
[8] = test system: T-47D breast
[9] = test system: PC-3 prostate
[10] = test system: MOLT-4 leukemia
[11] = test system: MDA-MB-231 breast
[12] = test system: ACHN renal
[13] = test system: COLO 205 colon
[14] = test system: SNB-75 CNS
[15] = test system: SF-539 CNS
[16] = test system: HS 578T breast
[17] = test system: HCT-116 colon
[18] = test system: SK-MEL-2 melanoma
[19] = test system: IGROV1 ovarian
[20] = test system: K-562 leukemia
[21] = test system: HCC-2998 colon
[22] = test system: SK-MEL-5 melanoma
[23] = test system: MDA-MB-435
[24] = test system: BT-549 breast
[25] = test system: RXF 393 renal
[26] = test system: HOP-62 NSCLC
[27] = test system: CCRF-CEM leukemia
[28] = test system: UACC-257 melanoma
[29] = test system: MALME-3M melanoma
[30] = test system: HT29 colon
[31] = test system: SF-268 CNS
[32] = test system: SK-OV-3 ovarian
[33] = test system: 786-0 renal
[34] = test system: OVCAR-8 ovarian
[35] = test system: NCI-H23 lung
[36] = test system: OVCAR-4 ovarian
[37] = test system: UO-31 renal
[38] = test system: OVCAR-3 ovarian
[39] = test system: NCI-H226 lung
[40] = test system: M14 melanoma
[41] = test system: OVCAR-5 ovarian
[42] = test system: SNB-19 CNS
[43] = test system: MDA-N
[44] = test system: CAKI-1 renal
[45] = test system: RPMI-8226 leukemia
[46] = test system: UACC-62 melanoma
[47] = test system: SF-295 CNS
[48] = test system: HCT-15 colon
[49] = test system: NCI-H460 lung
[50] = test system: HOP-92 NSCLC
[51] = test system: SK-MEL-28 melanoma
[52] = test system: SN12C renal
[53] = test system: EKVX NSCLC
[54] = test system: LOX IMVI melanoma
[55] = test system: NCI-H522 lung
[56] = test system: KM12 colon
[57] = test system: DU-145 prostate
[58] = test system: SR leukemia
[59] = test system: SW-620 colon

With `CC/C(Cl)=N\OC(=O)Nc1ccccc1OC(F)(F)F` as the compound, how does the TGI [1] read?
The TGI was 23.8 µM.

What about the TGI [2] of the same compound?
The TGI was 3.6 µM.

And the TGI [3]?
The TGI was > 51.3 µM.

What about the TGI [4] of the same compound?
Its TGI is 45.4 µM.

And the TGI [5]?
The TGI was 35.5 µM.

What about the TGI [6] of the same compound?
Its TGI is 51.5 µM.

What about the TGI [7] of the same compound?
Its TGI is > 57.8 µM.

And the TGI [8]?
Its TGI is 14.4 µM.

What about the TGI [9] of the same compound?
The TGI was 33.5 µM.

And the TGI [10]?
The TGI was 4.77 µM.

And the TGI [11]?
The TGI was 34.2 µM.

And the TGI [12]?
The TGI was 3.69 µM.

And the TGI [13]?
Its TGI is 3.79 µM.

What about the TGI [14] of the same compound?
The TGI was 48.2 µM.

And the TGI [15]?
Its TGI is 31 µM.

And the TGI [16]?
Its TGI is > 68.2 µM.

And the TGI [17]?
Its TGI is 27 µM.

And the TGI [18]?
Its TGI is 32.8 µM.

And the TGI [19]?
Its TGI is 30.8 µM.

And the TGI [20]?
Its TGI is 4.55 µM.

And the TGI [21]?
The TGI was 37.8 µM.

What about the TGI [22] of the same compound?
Its TGI is 22.1 µM.

What about the TGI [23] of the same compound?
The TGI was 40.7 µM.

And the TGI [24]?
The TGI was 11.5 µM.

And the TGI [25]?
Its TGI is 32.6 µM.

And the TGI [26]?
The TGI was 37.3 µM.

What about the TGI [27] of the same compound?
Its TGI is 3.42 µM.

And the TGI [28]?
Its TGI is 32.8 µM.

And the TGI [29]?
The TGI was 17.6 µM.

What about the TGI [30] of the same compound?
Its TGI is 44.4 µM.

And the TGI [31]?
The TGI was > 57.8 µM.

And the TGI [32]?
Its TGI is 37.3 µM.

And the TGI [33]?
Its TGI is 23.5 µM.

And the TGI [34]?
The TGI was 35.9 µM.

What about the TGI [35] of the same compound?
Its TGI is 45.8 µM.

And the TGI [36]?
Its TGI is 41.6 µM.

And the TGI [37]?
The TGI was 18.2 µM.

And the TGI [38]?
The TGI was 22.2 µM.

And the TGI [39]?
Its TGI is 38.1 µM.

What about the TGI [40] of the same compound?
The TGI was 23.3 µM.

What about the TGI [41] of the same compound?
The TGI was 36.9 µM.

And the TGI [42]?
Its TGI is 53.9 µM.

What about the TGI [43] of the same compound?
The TGI was 22.9 µM.

And the TGI [44]?
Its TGI is 3.33 µM.

What about the TGI [45] of the same compound?
Its TGI is 4.12 µM.

And the TGI [46]?
The TGI was 37.1 µM.

What about the TGI [47] of the same compound?
The TGI was 33.5 µM.

And the TGI [48]?
The TGI was > 24.2 µM.

What about the TGI [49] of the same compound?
Its TGI is 44.2 µM.

And the TGI [50]?
Its TGI is 6.15 µM.

What about the TGI [51] of the same compound?
The TGI was 41.5 µM.

And the TGI [52]?
Its TGI is 14.2 µM.

And the TGI [53]?
Its TGI is 15.9 µM.

What about the TGI [54] of the same compound?
The TGI was 5.65 µM.

What about the TGI [55] of the same compound?
The TGI was 2.9 µM.

What about the TGI [56] of the same compound?
The TGI was 41.6 µM.

What about the TGI [57] of the same compound?
Its TGI is 33.9 µM.

Which TGI [1] does the source give for `O=C(N1CCOCC1)C1(c2ccccc2)CCNCC1` here?
The TGI was > 100 µM.

And the TGI [3]?
Its TGI is > 100 µM.

What about the TGI [4] of the same compound?
The TGI was > 100 µM.

And the TGI [5]?
Its TGI is > 100 µM.

And the TGI [6]?
Its TGI is > 100 µM.

What about the TGI [7] of the same compound?
The TGI was > 100 µM.

What about the TGI [8] of the same compound?
The TGI was > 100 µM.

And the TGI [9]?
Its TGI is > 100 µM.

What about the TGI [10] of the same compound?
Its TGI is > 100 µM.

And the TGI [11]?
Its TGI is > 100 µM.

And the TGI [12]?
The TGI was > 100 µM.

And the TGI [13]?
The TGI was > 100 µM.

And the TGI [14]?
Its TGI is > 100 µM.

What about the TGI [15] of the same compound?
The TGI was > 100 µM.

What about the TGI [16] of the same compound?
Its TGI is > 100 µM.

And the TGI [17]?
The TGI was > 100 µM.

And the TGI [18]?
Its TGI is > 100 µM.

And the TGI [19]?
Its TGI is > 100 µM.

And the TGI [20]?
Its TGI is > 100 µM.

What about the TGI [22] of the same compound?
The TGI was > 100 µM.

What about the TGI [23] of the same compound?
Its TGI is > 100 µM.

What about the TGI [24] of the same compound?
The TGI was > 100 µM.

What about the TGI [25] of the same compound?
Its TGI is > 100 µM.

What about the TGI [26] of the same compound?
The TGI was > 100 µM.

And the TGI [27]?
Its TGI is 78.8 µM.

And the TGI [28]?
Its TGI is > 100 µM.

And the TGI [29]?
The TGI was > 100 µM.

What about the TGI [30] of the same compound?
The TGI was > 100 µM.

What about the TGI [31] of the same compound?
The TGI was > 100 µM.

And the TGI [32]?
Its TGI is > 100 µM.

What about the TGI [33] of the same compound?
The TGI was > 100 µM.

What about the TGI [58] of the same compound?
Its TGI is > 100 µM.

What about the TGI [34] of the same compound?
Its TGI is > 100 µM.

What about the TGI [35] of the same compound?
The TGI was > 100 µM.

And the TGI [36]?
Its TGI is > 100 µM.

What about the TGI [37] of the same compound?
The TGI was > 100 µM.

And the TGI [38]?
Its TGI is > 100 µM.

What about the TGI [39] of the same compound?
Its TGI is > 100 µM.

And the TGI [40]?
The TGI was > 100 µM.

What about the TGI [41] of the same compound?
Its TGI is > 100 µM.

And the TGI [42]?
The TGI was > 100 µM.

What about the TGI [43] of the same compound?
The TGI was > 100 µM.

And the TGI [44]?
Its TGI is > 100 µM.

And the TGI [45]?
Its TGI is > 100 µM.

And the TGI [46]?
Its TGI is > 100 µM.

And the TGI [47]?
Its TGI is > 100 µM.

What about the TGI [48] of the same compound?
Its TGI is > 100 µM.

And the TGI [49]?
Its TGI is > 100 µM.

What about the TGI [50] of the same compound?
The TGI was > 100 µM.

What about the TGI [51] of the same compound?
Its TGI is > 100 µM.

What about the TGI [52] of the same compound?
Its TGI is > 100 µM.

What about the TGI [53] of the same compound?
Its TGI is > 100 µM.

What about the TGI [54] of the same compound?
The TGI was > 100 µM.

And the TGI [55]?
Its TGI is > 100 µM.

What about the TGI [59] of the same compound?
The TGI was > 100 µM.

And the TGI [56]?
Its TGI is > 100 µM.

And the TGI [57]?
Its TGI is > 100 µM.
